From patent US9023789B2, “Amylin analogs and pharmaceutical compositions thereof” (Novo Nordisk A/S, priority 2012, dated 2015)
Numbered stars: 1 amine (or outer) side, 2 acyl side, 3 side chain; on linkers, the order of the positions; unused ones are H or OH. Bridge positions count the residues as written; N and C are the ends. Side chains are listed from the residue outwards. Peptide text beside a SMILES is read from it. * marks the point of attachment. C20 diacid = O=C(O)CCCCCCCCCCCCCCCCCCC(=O)*; γGlu = O=C(O)[C@H](CCC(=O)[*:2])N[*:1]; AEEA = NCCOCCOCC(=O)O

Tests used:
rat calcitonin receptor = molecular target: T1, rat calcitonin receptor (Rattus norvegicus, UniProt P32214); test: ASSAY (VIII) binding to the rat calcitonin receptor; settings: Table 7, read-out: rCTR bind IC50
T1 construct: expressed in transfected cells; host or cells: BHK tk'ts 13 (transient, FuGENE 6), membranes
T1 sequence (P32214 25-479 isoform P32214-2 limits assumed): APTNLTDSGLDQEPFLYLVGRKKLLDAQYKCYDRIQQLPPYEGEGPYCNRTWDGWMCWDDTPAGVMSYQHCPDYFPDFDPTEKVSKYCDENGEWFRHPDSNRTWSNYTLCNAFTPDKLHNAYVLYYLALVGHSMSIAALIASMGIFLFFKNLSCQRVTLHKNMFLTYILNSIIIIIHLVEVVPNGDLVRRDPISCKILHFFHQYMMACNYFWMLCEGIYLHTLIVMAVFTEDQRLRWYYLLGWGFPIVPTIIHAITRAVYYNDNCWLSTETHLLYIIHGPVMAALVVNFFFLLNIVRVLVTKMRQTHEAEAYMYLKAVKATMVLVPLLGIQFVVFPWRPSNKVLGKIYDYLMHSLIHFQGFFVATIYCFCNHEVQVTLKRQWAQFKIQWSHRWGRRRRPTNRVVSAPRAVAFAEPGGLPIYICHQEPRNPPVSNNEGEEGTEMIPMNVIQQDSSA
Procedure, shortened: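 Transfect BHK tk′ts 13 cells transiently with rat calcitonin receptor, culture in DMEM containing 10% FBS, collect cells about 48 hours later, then prepare membranes.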

[1] = ASSAY (III) ThT fibrillation assay for physical stability; assay type: physicochemical
Procedure, shortened: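 Formulations with 1 μM ThT, pH adjusted as required, incubated at 37 °C with 960 rpm orbital shaking; fluorescence (ex 444/em 485 nm) read every 20 min. Fibrillation reported as mean ThT fluorescence ± SD of 4–8 replicates at time points; polypeptide concentration measured by reverse-phase HPLC before and after, post-centrifugation.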

[2] = molecular target: T2, rat amylin receptor (rat calcitonin receptor + rat RAMP 3) (Rattus norvegicus, UniProt P32214+Q9JJ73); test: ASSAY (VI) binding to the rat amylin receptor; settings: for IC50: binding to rat amylin receptor, read-out: rAmylin-R bind IC50
T2 construct: expressed in transfected cells; host or cells: BHK tk'ts 13 (transient, FuGENE 6), membranes
T2 sequence (P32214 25-479 isoform P32214-2 limits assumed): T1 sequence (P32214 25-479 isoform P32214-2 limits assumed)
T2 sequence (Q9JJ73 23-147 partner): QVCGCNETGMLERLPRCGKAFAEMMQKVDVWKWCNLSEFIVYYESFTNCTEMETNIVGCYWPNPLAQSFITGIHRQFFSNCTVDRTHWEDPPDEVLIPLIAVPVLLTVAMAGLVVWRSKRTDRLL
Procedure, shortened: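 Binding to the rat amylin receptor was determined with membrane preparations. The receptor was expressed by transiently transfecting BHK tk′ts 13 cells with rat calcitonin receptor, using FuGENE® 6 (Roche) according to the manufacturer's recommendations. Roughly 48 hours later the cells were harvested and their membranes isolated.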

[3] = Table 7, rat binding selectivity, rCTR IC50 / rAmylin-R IC50
[4] = Table 7a (preferred compounds), rat binding selectivity, rCTR IC50 / rAmylin-R IC50
[5] = ratio of rCTR bind IC50 to rAmylin-R bind IC50

SMILES | IC50 (rat calcitonin receptor) [nM] | ThT pH 4.0 lag time (h) [1] [h] | IC50 ([2]; Table 7) [nM] | Ratio rCT/rAmylin binding [2, 3] | Ratio rCT/rAmylin binding [2, 4] | Ratio rCT/rAmylin binding [2, 5]
CC[C@H](C)[C@H](NC(=O)[C@H](C)NC(=O)CNC(=O)[C@H](Cc1ccccc1)NC(=O)[C@H](CC(N)=O)NC(=O)[C@@H]1CCCN1C(=O)[C@H](CO)NC(=O)[C@H](CO)NC(=O)[C@H](Cc1c[nH]cn1)NC(=O)[C@H](CCCNC(=N)N)NC(=O)[C@H](CC(C)C)NC(=O)[C@H](Cc1ccccc1)NC(=O)[C@H](CCCNC(=N)N)NC(=O)[C@H](C)NC(=O)[C@H](CC(C)C)NC(=O)[C@H](CCCNC(=N)N)NC(=O)[C@H](CCC(N)=O)NC(=O)[C@@H](NC(=O)[C@H](C)NC(=O)[C@@H]1CSSC[C@H](NC(=O)[C@@H](N)CCCCNC(=O)CC[C@H](NC(=O)CCCCCCCCCCCCCCCCCCC(=O)O)C(=O)O)C(=O)N[C@@H](CC(N)=O)C(=O)N[C@@H]([C@@H](C)O)C(=O)N[C@@H](C)C(=O)N[C@@H]([C@@H](C)O)C(=O)N1)[C@@H](C)O)C(=O)N1CCC[C@H]1C(=O)N[C@@H](CO)C(=O)N[C@@H](CO)C(=O)N[C@H](C(=O)N1CCC[C@H]1C(=O)N[C@H](C(=O)NCC(=O)N[C@@H](CO)C(=O)N[C@@H](CC(N)=O)C(=O)N[C@H](C(=O)N[C@@H](Cc1ccc(O)cc1)C(N)=O)[C@@H](C)O)C(C)C)[C@@H](C)O [Example 63] (H-K([γGlu-C20 diacid])CNTATCATQRLARFLRHSSPNFGAIPSSTPVGSNTY-NH2; disulfide 2-7 (inferred); N-terminus assumed) | 124 | 45 | 3.48 | 35.6 | 35.6 | 35.6
CC[C@H](C)[C@H](NC(=O)[C@H](C)NC(=O)CNC(=O)[C@H](Cc1ccccc1)NC(=O)[C@H](CC(N)=O)NC(=O)[C@@H]1CCCN1C(=O)[C@H](CO)NC(=O)[C@H](CO)NC(=O)[C@H](Cc1c[nH]cn1)NC(=O)[C@H](CCCNC(=N)N)NC(=O)[C@H](CC(C)C)NC(=O)[C@H](Cc1ccccc1)NC(=O)[C@H](CC(N)=O)NC(=O)[C@H](C)NC(=O)[C@H](CC(C)C)NC(=O)[C@H](CCCNC(=N)N)NC(=O)[C@H](CCC(N)=O)NC(=O)[C@@H](NC(=O)[C@H](C)NC(=O)[C@@H]1CSSC[C@H](NC(=O)[C@@H](N)CCCCNC(=O)COCCOCCNC(=O)CC[C@H](NC(=O)CCCCCCCCCCCCCCCCCCC(=O)O)C(=O)O)C(=O)N[C@@H](CC(N)=O)C(=O)N[C@@H]([C@@H](C)O)C(=O)N[C@@H](C)C(=O)N[C@@H]([C@@H](C)O)C(=O)N1)[C@@H](C)O)C(=O)N1CCC[C@H]1C(=O)N1CCC[C@H]1C(=O)N[C@@H](CO)C(=O)N[C@H](C(=O)N1CCC[C@H]1C(=O)N[C@H](C(=O)NCC(=O)N[C@@H](CO)C(=O)N[C@@H](CC(N)=O)C(=O)N[C@H](C(=O)N[C@@H](Cc1ccc(O)cc1)C(N)=O)[C@@H](C)O)C(C)C)[C@@H](C)O [Example 53] (H-K([AEEA-γGlu-C20 diacid])CNTATCATQRLANFLRHSSPNFGAIPPSTPVGSNTY-NH2; disulfide 2-7; N-terminus assumed) | 10.9 | 18 | 0.084 | 130.1 | 130.1 | 130.1
CC[C@H](C)[C@H](NC(=O)[C@H](C)NC(=O)CNC(=O)[C@H](Cc1ccccc1)NC(=O)[C@H](CC(N)=O)NC(=O)[C@@H]1CCCN1C(=O)[C@H](CO)NC(=O)[C@H](CO)NC(=O)[C@H](Cc1c[nH]cn1)NC(=O)[C@H](CCCNC(=N)N)NC(=O)[C@H](CC(C)C)NC(=O)[C@H](Cc1ccccc1)NC(=O)[C@H](CC(N)=O)NC(=O)[C@H](C)NC(=O)[C@H](CC(C)C)NC(=O)[C@H](CCCNC(=N)N)NC(=O)[C@H](CCC(N)=O)NC(=O)[C@@H](NC(=O)[C@H](C)NC(=O)[C@@H]1CSSC[C@H](NC(=O)[C@@H](N)CCCCNC(=O)COCCOCCNC(=O)CC[C@H](NC(=O)CCCCCCCCCCCCCCCCCCC(=O)O)C(=O)O)C(=O)N[C@@H](CC(N)=O)C(=O)N[C@@H]([C@@H](C)O)C(=O)N[C@@H](C)C(=O)N[C@@H]([C@@H](C)O)C(=O)N1)[C@@H](C)O)C(=O)N1CCC[C@H]1C(=O)N[C@@H](CO)C(=O)N[C@@H](CO)C(=O)N[C@H](C(=O)N1CCC[C@H]1C(=O)N[C@H](C(=O)NCC(=O)N[C@@H](CO)C(=O)N[C@@H](CC(N)=O)C(=O)N[C@H](C(=O)N[C@@H](Cc1ccc(O)cc1)C(N)=O)[C@@H](C)O)C(C)C)[C@@H](C)O [Example 49] | 51.4 | 8 | 1.08 | 47.7 | 47.7 | 47.7
CC[C@H](C)[C@H](NC(=O)[C@H](C)NC(=O)CNC(=O)[C@H](Cc1ccccc1)NC(=O)[C@H](CC(N)=O)NC(=O)[C@@H]1CCCN1C(=O)[C@H](CO)NC(=O)[C@H](CO)NC(=O)[C@H](Cc1c[nH]cn1)NC(=O)[C@H](CCCNC(=N)N)NC(=O)[C@H](CC(C)C)NC(=O)[C@H](Cc1ccccc1)NC(=O)[C@H](Cc1c[nH]cn1)NC(=O)[C@H](C)NC(=O)[C@H](CC(C)C)NC(=O)[C@H](CCCNC(=N)N)NC(=O)[C@H](CCC(N)=O)NC(=O)[C@@H](NC(=O)[C@H](C)NC(=O)[C@@H]1CSSC[C@H](NC(=O)[C@H](CCCNC(=N)N)NC(=O)CNC(=O)CC[C@H](NC(=O)CCCCCCCCCCCCCCCCCCC(=O)O)C(=O)O)C(=O)N[C@@H](CC(N)=O)C(=O)N[C@@H]([C@@H](C)O)C(=O)N[C@@H](C)C(=O)N[C@@H]([C@@H](C)O)C(=O)N1)[C@@H](C)O)C(=O)N1CCC[C@H]1C(=O)N[C@@H](CO)C(=O)N[C@@H](CO)C(=O)N[C@H](C(=O)N[C@@H](CC(N)=O)C(=O)N[C@H](C(=O)NCC(=O)N[C@@H](Cc1c[nH]cn1)C(=O)N[C@@H](CC(N)=O)C(=O)N[C@H](C(=O)N[C@@H](Cc1ccc(O)cc1)C(N)=O)[C@@H](C)O)C(C)C)[C@@H](C)O [Example 100] ({C20 diacid-γGlu}-GRCNTATCATQRLAHFLRHSSPNFGAIPSSTNVGHNTY-NH2; disulfide 3-8 (inferred)) | 311 | 33 | 11.2 | 27.7 | 27.7 | 27.7
CC[C@H](C)[C@H](NC(=O)[C@H](C)NC(=O)CNC(=O)[C@H](Cc1ccccc1)NC(=O)[C@H](CC(N)=O)NC(=O)[C@@H]1CCCN1C(=O)[C@H](CO)NC(=O)[C@H](CO)NC(=O)[C@H](Cc1c[nH]cn1)NC(=O)[C@H](CCCNC(=N)N)NC(=O)[C@H](CC(C)C)NC(=O)[C@H](Cc1ccccc1)NC(=O)[C@H](CC(N)=O)NC(=O)[C@H](C)NC(=O)[C@H](CC(C)C)NC(=O)[C@H](CCCNC(=N)N)NC(=O)[C@H](CCC(N)=O)NC(=O)[C@@H](NC(=O)[C@H](C)NC(=O)[C@@H]1CSSC[C@H](NC(=O)[C@H](CCCNC(=N)N)NC(=O)CNC(=O)CC[C@H](NC(=O)CCCCCCCCCCCCCCCCCCC(=O)O)C(=O)O)C(=O)N[C@@H](CC(N)=O)C(=O)N[C@@H]([C@@H](C)O)C(=O)N[C@@H](C)C(=O)N[C@@H]([C@@H](C)O)C(=O)N1)[C@@H](C)O)C(=O)N1CCC[C@H]1C(=O)N[C@@H](CO)C(=O)N[C@@H](CO)C(=O)N[C@H](C(=O)N[C@@H](CC(N)=O)C(=O)N[C@H](C(=O)NCC(=O)N[C@@H](CO)C(=O)N[C@@H](CC(N)=O)C(=O)N[C@H](C(=O)N[C@@H](Cc1ccc(O)cc1)C(N)=O)[C@@H](C)O)C(C)C)[C@@H](C)O [Example 46] ({C20 diacid-γGlu}-GRCNTATCATQRLANFLRHSSPNFGAIPSSTNVGSNTY-NH2; disulfide 3-8 (inferred)) | 46.8 | 24 | 0.33 | 141.8 | 141.8 | 141.8
